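Results reflect a 48-hour exposure of cells in 96-well plates to compound at five concentrations. The concentration for full growth arrest is given as TGI.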

Test systems include HT29 colon; KM12 colon; LOX IMVI melanoma; RPMI-8226 leukemia; SF-295 CNS; HCT-15 colon; U251 CNS; PC-3 prostate; HS 578T breast; NCI-H522 lung; NCI-H226 lung; A549 NSCLC; SF-268 CNS; SK-MEL-2 melanoma; SK-MEL-5 melanoma; SR leukemia; SNB-19 CNS; COLO 205 colon; CCRF-CEM leukemia; SN12C renal.
What all share (test): NCI tumour cell line growth inhibition, 48 h

With `Cc1cc(-c2nc3ccc(F)cc3s2)ccc1NC(=O)C(N)CCCCN` (stereo not given), the TGI with HT29 colon is 13.1 µM; in the assay with KM12 colon, 4.87 µM; in the assay with LOX IMVI melanoma, 4.73 µM; in the assay with RPMI-8226 leukemia, 12.5 µM; in the assay on SF-295 CNS, 19.3 µM; with HCT-15 colon it was 23.6 µM. The TGI in the assay with U251 CNS turned out to be 5.01 µM; in the assay with PC-3 prostate it was 22.7 µM; in the assay with HS 578T breast, 27.1 µM; with NCI-H522 lung it was 17.3 µM; with NCI-H226 lung, 24 µM; in the assay with A549 NSCLC, 5.54 µM. Moreover, the TGI in the assay on SF-268 CNS came out at 19 µM; in the assay on SK-MEL-2 melanoma, 23.1 µM; in the assay on SK-MEL-5 melanoma, 20.4 µM; with SR leukemia, 8.18 µM; with SNB-19 CNS, 25 µM; with COLO 205 colon, 14.8 µM. The TGI in the assay on CCRF-CEM leukemia amounted to 7.68 µM; in the assay on SN12C renal it was 21.3 µM.
On to `CC1(C)C(CBr)=[N+]([O-])C(C)(C)N1O`, for which the TGI in the assay with HT29 colon was more than 10 µM; in the assay with KM12 colon, more than 10 µM; with LOX IMVI melanoma it was more than 10 µM; in the assay on RPMI-8226 leukemia it was more than 8.63 µM; in the assay with SF-295 CNS, more than 10 µM; with HCT-15 colon, more than 8.12 µM. Moreover, the TGI in the assay with U251 CNS is more than 10 µM; in the assay on PC-3 prostate, more than 10 µM; in the assay on HS 578T breast it was more than 10 µM; in the assay with NCI-H522 lung, 3.22 µM; with NCI-H226 lung, more than 10 µM; in the assay on A549 NSCLC, more than 10 µM. The TGI is more than 10 µM with SF-268 CNS; more than 10 µM in the assay on SK-MEL-2 melanoma; more than 10 µM with SK-MEL-5 melanoma; more than 10 µM with SR leukemia; more than 10 µM in the assay on SNB-19 CNS; 3.75 µM in the assay with COLO 205 colon. Besides, the values for the TGI in the assay with CCRF-CEM leukemia and with SN12C renal were 4.49 µM and 9.93 µM, respectively.
Take `CCN(CC)CCOCCOCC1(c2ccc(Cl)c(Cl)c2)CCCCC1`: the TGI with HT29 colon is 7.53 µM; with KM12 colon it was 17.3 µM; with LOX IMVI melanoma it was 21.4 µM; with RPMI-8226 leukemia it was 6.45 µM; with SF-295 CNS, 15.1 µM; in the assay with HCT-15 colon, 15.3 µM. Also, the TGI in the assay on U251 CNS was found to be 21.5 µM; with PC-3 prostate, 23.3 µM; in the assay on HS 578T breast it was 13.8 µM; in the assay with NCI-H522 lung it was 22.1 µM; in the assay with NCI-H226 lung it was 35.1 µM; in the assay with A549 NSCLC, 23.1 µM. The TGI is 25.3 µM in the assay with SF-268 CNS; 28.6 µM in the assay with SK-MEL-2 melanoma; 4.88 µM in the assay with SK-MEL-5 melanoma; 26.8 µM in the assay with SR leukemia; 26.4 µM in the assay with SNB-19 CNS; 11.9 µM with COLO 205 colon. The TGI in the assay with CCRF-CEM leukemia stood at 14.7 µM; in the assay with SN12C renal, 24.9 µM.
On to `O=P(O)(O)c1ccc2c(c1)OCCOCCOCCOCCO2`, for which the TGI in the assay on HT29 colon, in the assay on KM12 colon, in the assay on LOX IMVI melanoma, in the assay with RPMI-8226 leukemia, with SF-295 CNS and in the assay with HCT-15 colon was more than 100 µM in each case. Also, the TGI in the assay with PC-3 prostate, in the assay with HS 578T breast, with NCI-H522 lung, with NCI-H226 lung, with A549 NSCLC and in the assay on SF-268 CNS was more than 100 µM each time. Further, the TGI in the assay on SK-MEL-5 melanoma, in the assay with SR leukemia, in the assay on SNB-19 CNS, in the assay on COLO 205 colon, in the assay on CCRF-CEM leukemia and in the assay on SN12C renal was more than 100 µM throughout.
As for `NC1=Nc2ccccc2Sc2nccn21`, the TGI in the assay with HT29 colon worked out at 65.1 µM; in the assay on KM12 colon, 69.9 µM; in the assay with LOX IMVI melanoma it was 32.3 µM; in the assay with RPMI-8226 leukemia it was 44.5 µM; in the assay on SF-295 CNS, 43.7 µM; in the assay with HCT-15 colon, 59.7 µM. In addition, the TGI is 96.2 µM in the assay with U251 CNS; 65 µM in the assay on PC-3 prostate; 79.1 µM in the assay on HS 578T breast; 44.3 µM in the assay on NCI-H522 lung; 48.1 µM with NCI-H226 lung; more than 100 µM in the assay with A549 NSCLC. The TGI is 88.4 µM in the assay with SF-268 CNS; more than 100 µM with SK-MEL-2 melanoma; 33.6 µM in the assay with SK-MEL-5 melanoma; 80.8 µM with SR leukemia; more than 100 µM with SNB-19 CNS; 35.4 µM with COLO 205 colon. The TGI was 75.3 µM in the assay on CCRF-CEM leukemia and more than 100 µM in the assay on SN12C renal.
Regarding `CC(C)(C)OC(=O)NCC(c1c[nH]c2cc(Br)ccc12)c1c[nH]c2cc(Br)ccc12`, the TGI in the assay with HT29 colon was 33.5 µM; in the assay on KM12 colon, 37.3 µM; in the assay on LOX IMVI melanoma it was 32.2 µM; in the assay with RPMI-8226 leukemia, more than 100 µM; in the assay with SF-295 CNS it was 36.2 µM; in the assay with HCT-15 colon, 30.2 µM. Further, the TGI turned out to be 31 µM in the assay on U251 CNS; 31.1 µM in the assay on PC-3 prostate; 46.4 µM with HS 578T breast; 32.7 µM with NCI-H522 lung; 34.5 µM in the assay with NCI-H226 lung; 44.7 µM in the assay on A549 NSCLC. In addition, the TGI with SF-268 CNS is 31.7 µM; in the assay on SK-MEL-2 melanoma it was 34 µM; in the assay with SK-MEL-5 melanoma, 34.2 µM; with SR leukemia it was more than 100 µM; with SNB-19 CNS it was 46.2 µM; with COLO 205 colon, 34.7 µM. Besides, the results for the TGI in the assay with CCRF-CEM leukemia and with SN12C renal were more than 100 µM and 33.6 µM, respectively.
For `CCCC(=O)Nc1cc(/C=C/C(=O)N2CC(CCl)c3ccc([N+](=O)[O-])cc32)n(C)c1` (stereo not given), the TGI in the assay on HT29 colon, in the assay on KM12 colon, in the assay on LOX IMVI melanoma, in the assay with RPMI-8226 leukemia, in the assay with SF-295 CNS and in the assay on HCT-15 colon was more than 100 µM throughout. The TGI with U251 CNS, in the assay with PC-3 prostate, in the assay on HS 578T breast, in the assay on NCI-H522 lung, in the assay on NCI-H226 lung and with A549 NSCLC was more than 100 µM each time. For the same compound, the TGI in the assay on SF-268 CNS was more than 100 µM; in the assay on SK-MEL-2 melanoma, more than 100 µM; in the assay on SR leukemia it was more than 100 µM; in the assay with SNB-19 CNS, more than 100 µM; with COLO 205 colon it was more than 100 µM; in the assay on CCRF-CEM leukemia, 29.4 µM. In the assay with SN12C renal, this compound came in with a TGI of more than 100 µM.
Take `C/C(CC(O)(C(F)(F)F)C(F)(F)F)=N\NC(N)=S`: the TGI in the assay with HT29 colon, with KM12 colon, in the assay on LOX IMVI melanoma, in the assay on RPMI-8226 leukemia, in the assay with SF-295 CNS and in the assay with HCT-15 colon was more than 10 µM throughout. Moreover, the TGI with U251 CNS, in the assay with PC-3 prostate, with HS 578T breast, in the assay on NCI-H522 lung, with NCI-H226 lung and with A549 NSCLC was more than 10 µM throughout. Also, the TGI with SF-268 CNS, in the assay on SK-MEL-2 melanoma, in the assay on SK-MEL-5 melanoma, in the assay on SR leukemia, in the assay on SNB-19 CNS and with COLO 205 colon was more than 10 µM in each case. Moreover, the TGI with CCRF-CEM leukemia and in the assay with SN12C renal was more than 10 µM throughout.
In the case of `CC12CP(=O)(O)CC1C2(Cl)Cl` (stereo not given), the TGI in the assay with HT29 colon, in the assay on KM12 colon, with LOX IMVI melanoma, in the assay on RPMI-8226 leukemia, in the assay with SF-295 CNS and in the assay with HCT-15 colon was more than 100 µM each time. Moreover, the TGI with U251 CNS, in the assay with PC-3 prostate, in the assay on HS 578T breast, in the assay on NCI-H522 lung, in the assay on NCI-H226 lung and in the assay with A549 NSCLC was more than 100 µM in each case. Also, the TGI in the assay with SF-268 CNS, with SK-MEL-2 melanoma, in the assay on SK-MEL-5 melanoma, with SR leukemia, with SNB-19 CNS and in the assay with COLO 205 colon was more than 100 µM each time. Moreover, the TGI with CCRF-CEM leukemia and in the assay on SN12C renal was more than 100 µM throughout.
Take `Cc1ccc2c(ccc3ncc(CNc4ccc(NS(C)(=O)=O)cc4)c32)[nH]1`: the TGI with HT29 colon is 93.6 µM; with KM12 colon it was 36.6 µM; in the assay with LOX IMVI melanoma, 46.2 µM; with RPMI-8226 leukemia, 41.3 µM; in the assay with SF-295 CNS, 59.2 µM; in the assay on HCT-15 colon, more than 100 µM. The TGI in the assay with U251 CNS worked out at 72.2 µM; with PC-3 prostate, 68.7 µM; in the assay on HS 578T breast it was 59.9 µM; with NCI-H522 lung it was 35.5 µM; in the assay with NCI-H226 lung, 55.6 µM; in the assay on A549 NSCLC, 66 µM. In addition, the TGI with SF-268 CNS is 52.5 µM; in the assay on SK-MEL-2 melanoma it was 38.5 µM; in the assay with SK-MEL-5 melanoma, 39.4 µM; in the assay on SR leukemia, 50.8 µM; in the assay with SNB-19 CNS, more than 100 µM; with COLO 205 colon, 94.4 µM. The TGI in the assay on CCRF-CEM leukemia was more than 100 µM; in the assay with SN12C renal, 92.5 µM.
Consider `C[C@H](CCC(=O)O)[C@H]1CC[C@H]2[C@@H]3[C@@H](O)C[C@@H]4C[C@H](O)CC[C@]4(C)[C@H]3C[C@H](O)[C@]12C`, for which the TGI in the assay with HT29 colon, in the assay on KM12 colon, in the assay on LOX IMVI melanoma, in the assay on RPMI-8226 leukemia, in the assay on HCT-15 colon and with U251 CNS was more than 100 µM in each case. The TGI in the assay on PC-3 prostate, with HS 578T breast, with NCI-H522 lung, in the assay with NCI-H226 lung, with A549 NSCLC and in the assay on SF-268 CNS was more than 100 µM each time. For the same compound, the TGI with SK-MEL-2 melanoma, in the assay with SR leukemia, with SNB-19 CNS, in the assay with COLO 205 colon, in the assay on CCRF-CEM leukemia and in the assay with SN12C renal was more than 100 µM each time.

(Values after PubChem BioAssay (NCI).)
